Laboratory results from ChEMBL document CHEMBL2203135, “Novel progesterone receptor modulators: 4-aryl-phenylsulfonamides” (Bioorg Med Chem Lett, 2012).
pIC50: −log10 of the molar value. Active and inactive are the calls of the source. No cut-off for these calls is given here.

Legend:
Type in all cases: functional
Androgen receptor = target: T1, Androgen receptor (Homo sapiens, UniProt P10275); experiment: Antagonist activity at androgen receptor by cellular reporter gene assay
T1 sequence (P10275 whole entry): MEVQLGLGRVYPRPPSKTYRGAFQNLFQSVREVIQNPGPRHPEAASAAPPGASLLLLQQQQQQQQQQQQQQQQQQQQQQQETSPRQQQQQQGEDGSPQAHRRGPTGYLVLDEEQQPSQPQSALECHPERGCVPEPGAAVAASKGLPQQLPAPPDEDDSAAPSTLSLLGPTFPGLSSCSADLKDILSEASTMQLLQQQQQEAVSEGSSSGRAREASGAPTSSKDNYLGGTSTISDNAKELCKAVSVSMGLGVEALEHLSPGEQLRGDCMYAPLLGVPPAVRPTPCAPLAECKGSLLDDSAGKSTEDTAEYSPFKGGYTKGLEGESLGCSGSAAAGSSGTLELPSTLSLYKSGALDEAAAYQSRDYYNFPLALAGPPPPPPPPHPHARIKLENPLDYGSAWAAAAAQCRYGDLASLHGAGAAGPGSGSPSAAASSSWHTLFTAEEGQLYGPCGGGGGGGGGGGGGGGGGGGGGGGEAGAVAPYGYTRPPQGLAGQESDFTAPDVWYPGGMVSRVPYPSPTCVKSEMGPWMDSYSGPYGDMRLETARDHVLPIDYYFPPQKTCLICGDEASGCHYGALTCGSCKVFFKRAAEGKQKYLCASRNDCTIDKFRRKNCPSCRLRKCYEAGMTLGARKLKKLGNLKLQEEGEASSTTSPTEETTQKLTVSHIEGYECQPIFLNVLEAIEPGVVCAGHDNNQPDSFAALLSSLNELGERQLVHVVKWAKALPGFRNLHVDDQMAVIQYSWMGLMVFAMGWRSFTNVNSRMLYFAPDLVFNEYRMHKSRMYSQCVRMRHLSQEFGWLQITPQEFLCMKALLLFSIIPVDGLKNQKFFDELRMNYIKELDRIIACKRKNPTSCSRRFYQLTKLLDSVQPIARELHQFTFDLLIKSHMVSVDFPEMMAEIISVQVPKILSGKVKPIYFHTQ

[1] = target: T2, Mineralocorticoid receptor (Homo sapiens) (UniProt P08235); experiment: Agonist activity at mineralocorticoid receptor by cellular reporter gene assay
T2 sequence (whole entry): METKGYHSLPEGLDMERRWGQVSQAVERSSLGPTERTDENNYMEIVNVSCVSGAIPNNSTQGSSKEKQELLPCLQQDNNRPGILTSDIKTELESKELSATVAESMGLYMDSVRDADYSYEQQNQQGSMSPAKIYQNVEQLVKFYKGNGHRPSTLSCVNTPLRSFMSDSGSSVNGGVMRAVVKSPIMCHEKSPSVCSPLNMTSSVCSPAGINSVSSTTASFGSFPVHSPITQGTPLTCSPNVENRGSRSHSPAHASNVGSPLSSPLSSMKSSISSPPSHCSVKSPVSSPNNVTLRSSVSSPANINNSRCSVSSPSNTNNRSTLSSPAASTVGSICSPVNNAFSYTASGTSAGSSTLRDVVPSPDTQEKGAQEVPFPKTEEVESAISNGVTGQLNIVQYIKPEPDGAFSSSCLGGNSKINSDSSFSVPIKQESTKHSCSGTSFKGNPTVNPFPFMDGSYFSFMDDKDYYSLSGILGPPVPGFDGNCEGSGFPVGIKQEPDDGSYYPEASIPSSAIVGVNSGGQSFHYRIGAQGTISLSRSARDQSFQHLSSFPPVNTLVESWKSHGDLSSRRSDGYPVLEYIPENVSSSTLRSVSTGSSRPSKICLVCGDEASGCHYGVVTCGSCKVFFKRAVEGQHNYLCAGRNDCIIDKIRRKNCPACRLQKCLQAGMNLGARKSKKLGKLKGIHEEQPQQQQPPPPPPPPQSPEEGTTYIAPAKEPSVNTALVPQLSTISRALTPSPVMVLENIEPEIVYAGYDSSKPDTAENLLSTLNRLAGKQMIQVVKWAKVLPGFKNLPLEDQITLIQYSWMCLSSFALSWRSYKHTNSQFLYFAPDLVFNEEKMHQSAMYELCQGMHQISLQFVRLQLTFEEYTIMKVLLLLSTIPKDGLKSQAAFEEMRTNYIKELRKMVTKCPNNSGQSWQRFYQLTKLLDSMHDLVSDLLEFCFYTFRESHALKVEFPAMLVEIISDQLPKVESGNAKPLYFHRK

Progesterone receptor = target: T3, Progesterone receptor (Homo sapiens, UniProt P06401); experiment: Antagonist activity at progesterone receptor by cellular reporter gene assay
T3 sequence (P06401 whole entry): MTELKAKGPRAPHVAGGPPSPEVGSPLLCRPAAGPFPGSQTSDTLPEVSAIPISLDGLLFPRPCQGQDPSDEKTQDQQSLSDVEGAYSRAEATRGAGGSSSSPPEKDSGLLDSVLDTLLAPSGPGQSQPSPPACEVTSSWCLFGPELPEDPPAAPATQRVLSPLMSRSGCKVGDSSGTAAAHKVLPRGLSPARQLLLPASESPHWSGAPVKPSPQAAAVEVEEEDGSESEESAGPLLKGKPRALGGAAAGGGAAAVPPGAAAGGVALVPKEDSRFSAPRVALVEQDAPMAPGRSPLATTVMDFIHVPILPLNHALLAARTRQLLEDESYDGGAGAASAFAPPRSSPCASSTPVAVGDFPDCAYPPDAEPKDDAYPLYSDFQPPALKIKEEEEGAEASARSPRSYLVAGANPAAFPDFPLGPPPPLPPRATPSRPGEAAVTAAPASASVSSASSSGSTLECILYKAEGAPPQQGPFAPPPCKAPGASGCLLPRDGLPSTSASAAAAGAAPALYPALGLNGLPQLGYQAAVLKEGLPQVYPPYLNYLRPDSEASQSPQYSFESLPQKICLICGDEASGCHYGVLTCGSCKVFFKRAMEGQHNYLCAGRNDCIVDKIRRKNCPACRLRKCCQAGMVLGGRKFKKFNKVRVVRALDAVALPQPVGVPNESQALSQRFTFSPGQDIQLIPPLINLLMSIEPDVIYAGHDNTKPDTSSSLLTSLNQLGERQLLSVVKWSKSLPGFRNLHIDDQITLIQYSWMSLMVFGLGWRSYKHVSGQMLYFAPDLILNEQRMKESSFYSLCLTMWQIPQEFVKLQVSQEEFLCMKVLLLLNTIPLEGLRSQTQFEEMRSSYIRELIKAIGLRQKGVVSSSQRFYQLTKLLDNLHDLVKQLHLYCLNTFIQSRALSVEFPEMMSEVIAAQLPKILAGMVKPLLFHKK

| Structure (SMILES) | pIC50 (Androgen receptor) | Activity [1] | pIC50 (Progesterone receptor) |
| --- | --- | --- | --- |
| CCS(=O)(=O)Nc1cc(F)c(-c2ccc(C#N)n2C)c(F)c1 | 7.00 | inactive | 7.93 |
| COC[C@]1(OC)CC[C@H]2[C@@H]3CCC4=CC(=O)CCC4=C3[C@@H](c3ccc(/C=N/O)cc3)C[C@@]21C [ASOPRISNIL] | 8.05 | inactive | 9.52 |
